Laboratory results published in patent publication US10472341B2, “Bicyclic tetrahydrothiazepine derivatives useful for the treatment of neoplastic and/or infectious diseases” (APEIRON BIOLOGICS AG, priority 2015, dated 2019).
Several values for one entry are separate records, joined by “and”; a condition that tells them apart may be missing. Identical values can stand only once. Counter-ions that a name gives are not always drawn. Like-named read-outs stand apart in the source and are kept apart here.

How the values were obtained:
CD8 T cells = test: CD69 expression on aCD3/aCD28 stimulated isolated human CD8 T cells (flow cytometry); assay type: cell-based; settings: T-cell, 24 h after TCR stimulation, read-out: Activity Class CD69 (CD8)
Protocol: (§1) Isolated T cells were plated in Xvivo medium at 1.5*10 ^5 cells per in 96 well culture plates and TCR-stimulated with anti-CD3/28 mAbs in the presence of compound as indicated. Cytokine production was determined at 24 h or 48 h following TCR stimulation in cell culture supernatants using commercially available ELISA kits (BD and eBioscience) as recommended by the manufacturer. T cell proliferation and CD25 expression (CD25-PC5 reagent purchased from Beckman Coulter) was determined by flow cytometry (Beckman-Coulter FC500) and analysed with Kaluza Software. For measurement of CD69 expression, isolated CD4 and CD8 T cells were plated in Xvivo medium at […] per in 96 well culture plates and TCR-stimulated with anti-CD3/28 mAbs in the presence of compound. CD69 expression was determined at 24 h following TCR stimulation by flow cytometry (CD4eF450, CD8APCeF780 and CD69-PC7 reagent purchased from eBioscience) and analysed with Kaluza Software.
(§2) For measurement of CD69 expression, isolated CD4 and CD8 T cells were plated in Xvivo medium at 80000 cells per in 96 well culture plates and TCR-stimulated with anti-CD3/28 mAbs in the presence of compound. CD69 expression was determined at 24 h following TCR stimulation by flow cytometry (CD4eF450, CD8APCeF780 and CD69-PC7 reagent purchased from eBioscience) and analysed with Kaluza Software.

CD4 T cells = test: CD69 expression on aCD3/aCD28 stimulated isolated human CD4 T cells (flow cytometry); assay type: cell-based; settings: 24 h after TCR stimulation, read-out: Activity Class CD69 (CD4)
Protocol: as §1, §2

[1] = system: aCD3/aCD28-stimulated human PBMCs; test: Cytokine production in aCD3/aCD28 stimulated human PBMCs; assay type: cell-based; settings: PBMC, 18 h
In short: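 Ficoll-isolated human PBMCs at 1e6 cells/mL in X-Vivo15, stimulated with soluble anti-CD3/CD28 (OKT3 and 28.2, 1 μg/mL each) plus compound for 18 h at 37° C. Supernatant cytokines quantified by MSD or HTRF.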

[2] = system: CD8 T cells & M21 tumor cells; test: CD8 T cells from M21-prestimulated PBMCs restimulated with M21 tumor cells, with or without PD-1 blockade; assay type: cell-based, human; settings: for Average Granzyme B / Average IFN-g / Average IL-2 / Average Number of living M21 tumor cells: no cpd
Protocol: For experiments investigating effects of PD-1 blockade, PBMCs were preincubated with 1 h UV-irradiated M21 tumor cells (50000 tumor cells per 1 Mill. PBMCs) for 14 days. […] Compounds and anti-PD-1 antibody (Nivolumab) or control antibody without direct effects on CD8 T cells (Ipilimumab) were added where indicated.
[…] Example 107, no antibody (no Ig), anti-PD-1 antibody (Nivolumab) or control antibody without direct effects on CD8 T cells (Ipilimumab) were included where indicated.

[3] = system: aCD3/aCD28-stimulated human CD4+-T-cells; test: IL-2 production and activation markers in aCD3/aCD28 stimulated isolated human CD4+-T-cells; assay type: cell-based; settings: IL-2 production at 3 μM compound
In short: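 CD4+ T cells isolated from buffy-coat PBMCs by microbeads were plated in Xvivo medium (1.5*10^5 cells/well) and stimulated with anti-CD3/28 mAbs plus compound. IL-2 measured by ELISA in supernatants at 24 h or 48 h; CD25 and proliferation by flow cytometry, CD69 at 24 h. Activity classes based on IL-2 at 3 μM compound.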

[4] = enhancement of IFN-γ production, read-out: Activity Class IFN-γ
[5] = enhancement of IL-2 production, read-out: Activity Class IL-2

## N[C@H]1CS(=O)(=O)c2cc(F)c(C(=O)NCc3ccccc3)cc2N(Cc2ccc(F)cc2)C1=O [Example 134, (3R)-3-amino-N-benzyl-8-fluoro-5-[(4-fluorophenyl)methyl]-1,1,4-trioxo-2,3,4,5-tetrahydro-1λ^6,5-benzothiazepine-7-carboxamide hydrochloride]
CD8 T cells
  EC50: < 1580 nM
CD4 T cells
  EC50: < 1580 nM
[1]; [4]
  EC50: < 1580 nM
[1]; [5]
  EC50: < 1580 nM

## N[C@H]1CS(=O)(=O)c2cc(F)c(C(=O)NCCCC(F)(F)F)cc2N(Cc2ccc(F)cc2)C1=O [Example 129, (3R)-3-amino-8-fluoro-5-[(4-fluorophenyl)methyl]-1,1,4-trioxo-N-(4,4,4-trifluorobutyl)-2,3,4,5-tetrahydro-1λ^6,5-benzothiazepine-7-carboxamide hydrochloride]
CD8 T cells
  EC50: < 1580 nM
CD4 T cells
  EC50: < 1580 nM
[1]; [4]
  EC50: < 1580 nM
[1]; [5]
  EC50: 1580 to 5010 nM

## COc1ccc(CNC(=O)c2ccc3c(c2)N(Cc2ccc(Cl)cc2)C(=O)[C@@H](N)CS3(=O)=O)cc1 [Example 153, (3R)-3-amino-5-[(4-chlorophenyl)methyl]-N-[(4-methoxyphenyl)methyl]-1,1,4-trioxo-2,3,4,5-tetrahydro-1λ^6,5-benzothiazepine-7-carboxamide]
CD8 T cells
  EC50: < 1580 nM
CD4 T cells
  EC50: < 1580 nM
[1]; [4]
  EC50: < 1580 nM
[1]; [5]
  EC50: < 1580 nM

## N[C@H]1C[S@+]([O-])c2cc(F)c(C(=O)NCCCC(F)(F)F)cc2N(Cc2ccc(Cl)cc2)C1=O (single isomer, unassigned) [Example 122, hydrochloride]
CD8 T cells
  EC50: 1580 to 5010 nM
CD4 T cells
  EC50: 1580 to 5010 nM
[1]; [4]
  EC50: < 1580 nM
[1]; [5]
  EC50: 1580 to 5010 nM

## N[C@H]1CSc2cc(F)c(C(=O)NCc3ccccc3)cc2N(Cc2ccc(F)cc2)C1=O [Example 132, (3R)-3-amino-N-benzyl-8-fluoro-5-[(4-fluorophenyl)methyl]-4-oxo-2,3,4,5-tetrahydro-1,5-benzothiazepine-7-carboxamide hydrochloride]
CD8 T cells
  EC50: > 5010 nM
CD4 T cells
  EC50: > 5010 nM
[1]; [4]
  EC50: 1580 to 5010 nM
[1]; [5]
  EC50: > 5010 nM

## N[C@H]1CS(=O)(=O)c2cc(Cl)c(C(=O)N[C@@H]3CC3(F)F)cc2N(Cc2ccc(Cl)cc2)C1=O [Example 175, (3R)-3-amino-8-chloro-5-[(4-chlorophenyl)methyl]-N-[(1R)-2,2-difluorocyclopropyl]-1,1,4-trioxo-2,3,4,5-tetrahydro-1λ^6,5-benzothiazepine-7-carboxamide]
CD8 T cells
  EC50: 1580 to 5010 nM
CD4 T cells
  EC50: < 1580 nM
[1]; [4]
  EC50: 1580 to 5010 nM
[1]; [5]
  EC50: > 5010 nM

## Ipilimumab
[2]; Ipilimumab alone
  Average Granzyme B: 0.612 ng/mL
  Average IFN-g: 0.000 ng/mL
  Average IL-2: 0.024 ng/mL
  Average Number of living M21 tumor cells: 22648 and 25130
[2]; control antibody not targeting CD8 T cells
  synergistic enhancement of cytokine production with example 107: No such effects were observed

## CCCCNC(=O)c1ccc2c(c1)N(Cc1ccc(Cl)cc1)C(=O)[C@@H](N)C[S+]2[O-].Cl (stereo partly drawn) [Example 66, (3R)-3-amino-N-butyl-5-[(4-chlorophenyl)methyl]-1,4-dioxo-2,3,4,5-tetrahydro-1λ^4,5-benzothiazepine-7-carboxamide hydrochloride]
[3]
  Activity Class CD4+: C (IL-2 production at 3 μM compound concentration between 2-fold increase as compared to mean IL-2 production of stimulated cells in the absence of compounds and <2 ng/mL)
[1]; [4]
  EC50: < 1580 nM
[1]; [5]
  EC50: 1580 to 5010 nM

## Cl.N[C@H]1CSc2ccc(C(=O)NCCCC(F)(F)F)cc2N(Cc2ccc(OC(F)(F)F)cc2)C1=O [Example 29, (3R)-3-amino-4-oxo-N-(4,4,4-trifluorobutyl)-5-{[4-(trifluoromethoxy)phenyl]methyl}-2,3,4,5-tetrahydro-1,5-benzothiazepine-7-carboxamide hydrochloride]
[3]
  Activity Class CD4+: B (IL-2 production at 3 μM compound concentration between 2-10 ng/mL)
[1]; [4]
  EC50: < 1580 nM
[1]; [5]
  EC50: < 1580 nM

## CC(C)NC(=O)c1ccc2c(c1)N(Cc1ccc(Cl)c(Cl)c1)C(=O)[C@@H](N)CS2(=O)=O.Cl [Example 88, (3R)-3-amino-5-[(3,4-dichlorophenyl)methyl]-1,1,4-trioxo-N-(propan-2-yl)-2,3,4,5-tetrahydro-1λ^6,5-benzothiazepine-7-carboxamide hydrochloride]
[3]
  Activity Class CD4+: C (IL-2 production at 3 μM compound concentration between 2-fold increase as compared to mean IL-2 production of stimulated cells in the absence of compounds and <2 ng/mL)
[1]; [4]
  EC50: 1580 to 5010 nM
[1]; [5]
  EC50: > 5010 nM

## CC(C)NC(=O)c1ccc2c(c1)N(Cc1ccc(C(C)(C)C)cc1)C(=O)[C@@H](N)CS2.Cl [Example 4, (3R)-3-amino-5-[(4-tert-butylphenyl)methyl]-4-oxo-N-(propan-2-yl)-2,3,4,5-tetrahydro-1,5-benzothiazepine-7-carboxamide hydrochloride]
[3]
  Activity Class CD4+: C (IL-2 production at 3 μM compound concentration between 2-fold increase as compared to mean IL-2 production of stimulated cells in the absence of compounds and <2 ng/mL)
[1]; [4]
  EC50: > 5010 nM
[1]; [5]
  EC50: 1580 to 5010 nM

## Cl.N[C@H]1CSc2ccc(C(=O)NC3CCC(F)(F)CC3)cc2N(Cc2ccc(Cl)cc2)C1=O [Example 33, (3R)-3-amino-5-[(4-chlorophenyl)methyl]-N-(4,4-difluorocyclohexyl)-4-oxo-2,3,4,5-tetrahydro-1,5-benzothiazepine-7-carboxamide hydrochloride]
[3]
  Activity Class CD4+: B (IL-2 production at 3 μM compound concentration between 2-10 ng/mL)
[1]; [4]
  EC50: < 1580 nM
[1]; [5]
  EC50: 1580 to 5010 nM

## Cl.Cl.N[C@H]1CSc2ccc(C(=O)Nc3cccnc3)cc2N(Cc2ccc(OC(F)(F)F)cc2)C1=O [Example 25, (3R)-3-amino-4-oxo-N-(pyridin-3-yl)-5-{[4-(trifluoromethoxy)phenyl]methyl}-2,3,4,5-tetrahydro-1,5-benzothiazepine-7-carboxamide dihydrochloride]
[3]
  Activity Class CD4+: C (IL-2 production at 3 μM compound concentration between 2-fold increase as compared to mean IL-2 production of stimulated cells in the absence of compounds and <2 ng/mL)
[1]; [4]
  EC50: > 5010 nM
[1]; [5]
  EC50: 1580 to 5010 nM

## Nivolumab
[2]; Nivolumab alone
  reduction in viable tumor cells: not able to cause a significant reduction in viable tumor cells
  Average Granzyme B: 1.758 ng/mL
  Average IFN-g: 0.014 ng/mL
  Average IL-2: 0.046 ng/mL
  Average Number of living M21 tumor cells: 20344 and 22655
[2]; PD-1 blockade alone, CD8 T cells & M21 (expresses PD-L1)
  cytokine secretion: also enhanced cytokine secretion

## Cl.N[C@H]1CSc2cc(F)c(C(=O)NCC3CCOCC3)cc2N(Cc2ccc(Cl)cc2F)C1=O [Example 55, (3R)-3-amino-5-[(4-chloro-2-fluorophenyl)methyl]-8-fluoro-N-(oxan-4-ylmethyl)-4-oxo-2,3,4,5-tetrahydro-1,5-benzothiazepine-7-carboxamide hydrochloride]
[3]
  Activity Class CD4+: B (IL-2 production at 3 μM compound concentration between 2-10 ng/mL)
[1]; [4]
  EC50: 1580 to 5010 nM
[1]; [5]
  EC50: 1580 to 5010 nM

## CC(C)C(C)NC(=O)c1ccc2c(c1)N(Cc1ccc(Cl)cc1)C(=O)[C@@H](N)CS2(=O)=O.Cl (stereo partly drawn) [Example 83, (3R)-3-amino-5-[(4-chlorophenyl)methyl]-N-(3-methylbutan-2-yl)-1,1,4-trioxo-2,3,4,5-tetrahydro-1λ^6,5-benzothiazepine-7-carboxamide hydrochloride]
[3]
  Activity Class CD4+: B (IL-2 production at 3 μM compound concentration between 2-10 ng/mL)
[1]; [4]
  EC50: < 1580 nM
[1]; [5]
  EC50: > 5010 nM

## CCCCNC(=O)c1cc2c(cc1N(C)C)S(=O)(=O)C[C@H](N)C(=O)N2Cc1ccc(Cl)cc1 [Example 114, (3R)-3-amino-N-butyl-5-[(4-chlorophenyl)methyl]-8-(dimethylamino)-1,1,4-trioxo-2,3,4,5-tetrahydro-1 λ^6,5-benzothiazepine-7-carboxamide hydrochloride]
[3]
  Activity Class CD4+: C (IL-2 production at 3 μM compound concentration between 2-fold increase as compared to mean IL-2 production of stimulated cells in the absence of compounds and <2 ng/mL)
[1]; [4]
  EC50: 1580 to 5010 nM
[1]; [5]
  EC50: > 5010 nM
